Experimental data from patent US11319318B2, “Pyridinones and isoquinolinones as inhibitors of the bromodomain BRD9” (Boehringer Ingelheim International GmbH, priority 2015, dated 2022).

Each molecule was assayed against T1, bromodomain of BRD9 (GST-BRD9 aa 130-259) / H3 K9/14/18/23Ac(1-28) peptide (Homo sapiens, UniProt Q9H8M2) (assay: BRD9-H3 tetra-acetylated Peptide Inhibition AlphaScreen).
T1 construct: The protein corresponding to amino acids 130-259 that contains the bromodomain of BRD9; made in house; host or cells: E. coli
T1 sequence (Q9H8M2 130-259): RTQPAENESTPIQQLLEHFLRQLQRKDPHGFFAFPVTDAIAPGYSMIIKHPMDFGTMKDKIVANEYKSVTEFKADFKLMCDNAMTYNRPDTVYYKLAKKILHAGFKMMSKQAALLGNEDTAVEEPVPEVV
Format: binding

Compound | IC50 [nM]
Cc1cc(-c2cc(C)c(=O)n(C)c2)ccc1C1(N2CCN(C)CC2)CC1 [Compound I-84] | 618
Cc1cc(-c2ccc(C(=O)C3CCNCC3)cc2)cn(C)c1=O [Compound I-73] | 361
COc1cc(-c2cn(C)c(=O)c(C)c2C)ccc1CN1C[C@@H]2CC1CN2C [Compound I-108] | 152
Cc1cc(-c2ccc(S(=O)(=O)NCCN(C)C)c(OC(F)(F)F)c2)cn(C)c1=O [Compound I-7] | 326
COc1cc(-c2cc(C)c(=O)n(C)c2)ccc1S(=O)(=O)N1CC(O)C1 [Compound I-74] | 371
COc1cc(-c2cc(C)c(=O)n(C)c2C)ccc1CN1CC(O)C1 [Compound I-119] | 55
CCOc1cc(-c2cc(C)c(=O)n(C)c2)ccc1CN1CC[N+](C)(CC)CC1 [Compound I-81] | 502
COc1cc(-c2cc(C)c(=O)n(C)c2)ccc1C1(N(C)C)CC1 [Compound I-53] | 97
COc1cc(-c2cn(C)c(=O)c(C)c2C)ccc1CN1C[C@@H]2CC1CN2 [Compound I-109] | 193
Cc1cc(-c2ccc(S(=O)(=O)N(C)C)cc2)cn(C)c1=O [Compound I-8] | 976
Cc1c(-c2ccc(C(=O)C3CCNCC3)cc2)cn(C)c(=O)c1C [Compound I-115] | 740
Cc1cc(-c2cc(C)c(=O)n(C)c2)ccc1S(=O)(=O)NCCN(C)C [Compound I-68] | 223
COc1cc(-c2cc(C)c(=O)n(C)c2)ccc1CN1CC(Cl)C1 [Compound I-178, 5-[4-(3-Chloro-azetidin-1-ylmethyl)-3-methoxy-phenyl]-1,3-dimethyl-1H-pyridin-2-one] | 38
COCc1c(OC)cc(-c2cn(C)c(=O)c(C)c2C)cc1OC [Compound I-107] | 137
COc1cc(-c2cc(C)c(=O)n(C)c2)ccc1CN1CC(O)C1 [Compound I-47, 5-[4-(3-Hydroxy-azetidin-1-ylmethyl)-3-methoxy-phenyl]-1,3-dimethyl-1H-pyridin-2-one] | 52
COc1cc(-c2cc(C)c(=O)n(C)c2C)cc(OC)c1CN1CC(O)C1 [Compound I-118] | 10
COc1cc(-c2cc(C)c(=O)n(C)c2)cc(OC)c1CN1CCNCC1 [Compound I-52] | 87
Cc1cc(-c2ccc(CN3CCN(C)CC3)cc2)c(C)n(C)c1=O [Compound I-21] | 1690
Cc1c(-c2ccc(C(=O)N3CCNCC3)cc2)cc(I)c(=O)n1C [Compound I-22] | 235
COc1cc(-c2cc(C)c(=O)n(C)c2)ccc1CN1C[C@@H]2CC1CN2 [Compound I-54] | 121
Cc1cc(-c2cc(C)c(=O)n(C)c2)ccc1CN [Compound I-92] | 1040
COc1cc(-c2cc(C)c(=O)n(C)c2)ccc1CN1C[C@@H]2CC1CN2C [Compound I-51] | 78
CCC(CC)(c1ccc(-c2cc(C)c(=O)n(C)c2)cc1OC)N1CCN(C)CC1 [Compound I-61] | 179
Cc1cc(-c2ccc(C3(N(C)C)CCC3)cc2)cn(C)c1=O [Compound I-66] | 213
Cc1cc(-c2cccc(C3CCCCN3)c2)cn(C)c1=O (stereo not drawn) [Compound I-98] | 2360

More lines, now with the values ahead:

IC50 [nM] | Compound
268 | COc1cc(-c2cc(C)c(=O)n(C)c2)cc(C)c1CN [Compound I-202, 5-(4-Aminomethyl-3-methoxy-5-methyl-phenyl)-1,3-dimethyl-1H-pyridin-2-one]
1320 | Cc1cc(-c2ccc(CN3CC4CCC3C4)cc2)cn(C)c1=O (stereo not drawn) [Compound I-184]
167 | COc1cc(-c2cc(C)c(=O)n(C)c2)cc(C)c1C(=O)N1CCNCC1 [Compound I-159]
24 | COc1cc(-c2cn(C)c(=O)c3cnccc23)cc(OC)c1CNC1CNC1 [II-32]
128 | CNCCN(C)S(=O)(=O)c1cc(OC)c(-c2cc(C)c(=O)n(C)c2C)cc1OC [Compound I-155]
38 | COc1cc(S(=O)(=O)NC2CNC2)c(OC)cc1-c1cc(C)c(=O)n(C)c1C [Compound I-154]
39 | COc1cc(-c2cn(C)c(=O)c3[nH]ccc23)ccc1CN1C[C@H]2C[C@@H]1CN2C [III-2, 4-[3-Methoxy-4-((1R,4R)-5-methyl-2,5-diaza-bicyclo[2.2.1]hept-2-ylmethyl)-phenyl]-6-methyl-1,6-dihydro-pyrrolo[2,3-c]pyridin-7-one]
26 | COc1cc(-c2cc(C)c(=O)n(C)c2)ccc1COC1CNC1 [Compound I-144]
609 | COc1cc(-c2cn(C)c(=O)c3ccncc23)c(OC)cc1CN(C)C [II-24]
5 | COc1cc(-c2cn(C)c(=O)c3cncnc23)cc(OC)c1CN1CC(N)C1 [II-30, 8-[4-(3-Amino-azetidin-1-ylmethyl)-3,5-dimethoxy-phenyl]-6-methyl-6H-pyrido[4,3-d]pyrimidin-5-one]
917 | C[C@@H](N)c1ccc(-c2cn(C)c(=O)c3ccccc23)cc1 [II-44]
890 | CN1CCN(Cc2ccc(-c3cn(C)c(=O)c4ccccc34)cc2)CC1 [II-43]
487 | Cn1cc(-c2ccc(C(=O)N3CCC3)cc2)c2cc[nH]c2c1=O [III-10]
23 | COc1cc(-c2cn(C)c(=O)c3cncnc23)cc(OC)c1CNC1CNC1 [II-33]
8 | COc1cc(-c2cn(C)c(=O)c3cnccc23)cc(OC)c1CN1CC(O)C1 [II-34]
126 | COc1cc(S(=O)(=O)N2CCNCC2)c(OC)cc1-c1cc(C)c(=O)n(C)c1 [Compound I-147]

IC50 [nM] | Compound
916 | CN(C)Cc1ccc(-c2cn(C)c(=O)c3ccccc23)cc1 [II-5]
68 | Cc1cc(-c2cn(C)c(=O)c3[nH]ccc23)ccc1C(=O)N1CCNCC1 [III-5]
3210 | Cc1cc(-c2ccc(C(=O)N3CCN(C)CC3)cc2)c(C)n(C)c1=O [Compound I-214]
198 | COc1cc(-c2cc(C)c(=O)n(C)c2C)ccc1CN1C[C@@H]2CC1CN2 [Compound I-127]
145 | CNCCN(C)S(=O)(=O)c1cc(OC)c(-c2cn(C)c(=O)c(C)c2C)cc1OC [Compound I-152]
1000 | CNCc1ccc(-c2cc(C)c(=O)n(C)c2)cc1 [Compound I-181]
1050 | Cc1cc(-c2ccc(CN3CCCCC3)cc2)cn(C)c1=O [Compound I-182]
322 | COc1cc(-c2cc(C)c(=O)n(C)c2C)cc(OC)c1CN1CCN(C)CC1 [Compound I-132]
4850 | CN1CCN(C(=O)c2ccc(-c3cn(C)c(=O)c4ncccc34)cc2)CC1 [II-50]
1920 | Cc1cc(-c2cc(C)c(=O)n(C)c2C)ccc1C(=O)N1CCN(C)CC1 [Compound I-136]
1380 | Cc1c(-c2ccc([C@@H](C)N)cc2)cn(C)c(=O)c1C [Compound I-139]
589 | Cn1cc(-c2ccc(C(=O)N3CCNCC3)cc2)c2ncncc2c1=O [II-13]
222 | COc1cc(-c2cc(C)c(=O)n(C)c2C)ccc1CN1C[C@H]2C[C@@H]1CN2C [Compound I-128]
33 | CNC1CN(Cc2c(OC)cc(-c3cc(C)c(=O)n(C)c3)cc2OC)C1 [Compound I-146]
834 | Cc1c(-c2ccc(CN)cc2)cn(C)c(=O)c1C [Compound I-137, 5-(4-Aminomethyl-phenyl)-1,3,4-trimethyl-1H-pyridin-2-one]
55 | COc1cc(-c2cc(C)c(=O)n(C)c2)ccc1CN1CCN(Cc2ccc3nc[nH]c3c2)CC1 [Compound I-199]
